Tests used:
[1] = Circular dichroism, α helical content; type: physicochemical
Procedure: Circular Dichroism. CD spectra were recorded by using a Jasco J-810 spectropolarimeter (Jasco). Measurements were performed at 25° C. by using a quartz cuvette (Starna) with a path length of 0.1 cm. All the measurements were performed with a peptide concentration of 0.10 mg/ml in PBS containing 0-75% trifluoroethanol (TFE). Samples were scanned five times at 20 nm/min with a bandwidth of 1 nm and a response time of 1 s, over the wavelength range 190 to 260 nm. The data were averaged, and the spectrum of a peptide-free control sample was subtracted. The α helical content was calculated after smoothing (means-movement method; convolution width, 13) from ellipticity data, using the neural network program CDNN version 2.1. All measurements were conducted three times.

[2] = molecular target: T1, Human RIα (Homo sapiens, UniProt P10644); experiment: R-overlay with human RIα; type: binding; conditions: equal amounts of human or bovine RIα, n=3
T1 construct: made in house; host or cells: E. coli BL21 (B121 [sic])
Procedure: R-overlay. R-overlays were conducted as described, using ^32P-labeled recombinant murine RII (Hausken, Z. E., et al., 1998 in Protein Targeting Protocols, ed. Clegg, R. A. (Humana, Totowa, N.J.), Vol. 88, pp. 47-64) or recombinant bovine RI (A98S) or by cold RI-overlay where bound RIα was detected by Western blot. Cold RI-overlay was performed by incubating the membranes with 250 nM RI overnight at 4° C., then the membranes were washed five times in TBST for 5 min. Detection of RI was performed using an anti-RI rabbit polyclonal antibody (Santa Cruz) at a concentration of 0.2 μg/μl for 1 hour at 4° C. Then the membranes were washed five times for 5 minutes in PBS followed by incubation with HRP-conjugated anti-rabbit IgGs (1:5000) for 1 hour at 4° C. The membranes were washed in PBS as described above before detection by Supersignal West Dura Extended Duration Substrate (Pierce).
The MEME3 sequence was synthesized on a membrane and RIα binding analysed by R-overlay using equal amounts of either human or bovine RIα (FIG. 3C).

[3] = molecular target: T2, PKA type I (Mus musculus, UniProt Q9DBC7); experiment: Solid phase immobilization from Y-1 adrenal cell lysate, PKA type I; type: binding; conditions: overnight
T2 construct: host or cells: mouse Y-1 adrenocortical cells (lysate)
Procedure: (§1) Solid phase assay and cell lysate. 5×10^6 Y1 cells or 20×10^6 Jurkat T cells lysed in 150 mM NaCl, 1% NP-40, 0.5% deoxycholate, 0.1% SDS and 50 mM Tris HCl (7.8) were incubated overnight at 4° C. with MEME3 and SM3 peptides synthesized on membranes (Autospot, Intavis, AG). The membranes were washed two times for 10 minutes in lysis buffer and thereafter in high salt lysis buffer (1 M NaCl) before boiling in SDS-PAGE loading buffer.
A solid phase immobilization assay (schematic illustration in FIG. 24, left panel) was used to analyse endogenous PKA binding to MEME3. MEME3 and SM3 peptides synthesized in triplicate on membranes were incubated overnight in lysate from Y-1 adrenal cells. Thereafter bound proteins were eluted, subjected to 10% PAGE and analysed by immunoblotting using specific antibodies against PKA-RIα, PKA-C and PKA-RIIα subunits.

[4] = molecular target: T3, RI (Homo sapiens, UniProt P10644); experiment: Co-immunoprecipitation with RI in transfected HEK293 cells; type: cell-based; conditions: HEK293 cells transfected with GFP-fusion constructs
T3 construct: endogenous in cells; host or cells: HEK293 (transfected only with GFP-peptide constructs)
Procedure: HEK293 cells at […] were transfected with ten μg of plasmid DNA (GFP, GFP-MEME3 or GFP-Scrambled MEME3) by using the CaCl2 method. Cells were lysed after 30 hours in lysis buffer (20 mM Hepes, pH 7.5/150 mM NaCl/1 mM EDTA/1% Triton X-100) with protease inhibitors (Complete Mini, EDTA-free tablets, Roche).
Immunoblot analysis. Immunocomplexes and lipid raft fractions were analysed on a 10, 15% or 4-20% PAGE and blotted onto PVDF membranes. The filters were blocked in 5% non-fat dry milk in TBST for 30 minutes at RT, incubated 1 hour at RT (or overnight at 4° C.) with primary antibodies, washed four times 5 minutes in TBST with 0.1% Tween-20 and incubated with a horseradish-peroxidase-conjugated secondary antibody. Blots were developed by using Supersignal West Dura Extended Duration Substrate or Supersignal West Pico substrate (Pierce).
Antibodies. RI or RII were immunoprecipitated with polyclonal antibodies against human RI or human RII at a 3 μg/ml dilution (Santa Cruz Biotechnology). MEME3 or scrambled peptide was immunoprecipitated with 1.5 μl of anti-GFP antiserum (Invitrogen). […]
Immunocomplexes were analysed on 10% PAGE (B and C) or 15% PAGE (D) and subjected to Western blotting using anti-GFP, anti-RI or anti-RII as indicated and blotted onto PVDF membranes. […]

[5] = molecular target: PKA-RIIα (Homo sapiens, UniProt P13861); experiment: Solid phase pull down from T cell lysate, PKA-RIIα; type: binding; set-up: endogenous in cells; host or cells: Jurkat T cells (lysate); conditions: overnight
Procedure: as §1
Solid phase pull down (see schematic illustration in FIG. 24A, left panel) was performed to analyse endogenous PKA binding to MEME3. MEME3 and SM3 peptides synthesized in triplicate on membranes were incubated overnight in T cell lysate, thereafter bound proteins were eluted, subjected to 10% PAGE electrophoresis and analysed by immunoblotting (FIG. 11). The presence of PKA subunits was assessed by immunoblotting using specific antibodies against PKA-RIα and PKA-RIIα subunits.

T1 sequence (P10644 whole entry): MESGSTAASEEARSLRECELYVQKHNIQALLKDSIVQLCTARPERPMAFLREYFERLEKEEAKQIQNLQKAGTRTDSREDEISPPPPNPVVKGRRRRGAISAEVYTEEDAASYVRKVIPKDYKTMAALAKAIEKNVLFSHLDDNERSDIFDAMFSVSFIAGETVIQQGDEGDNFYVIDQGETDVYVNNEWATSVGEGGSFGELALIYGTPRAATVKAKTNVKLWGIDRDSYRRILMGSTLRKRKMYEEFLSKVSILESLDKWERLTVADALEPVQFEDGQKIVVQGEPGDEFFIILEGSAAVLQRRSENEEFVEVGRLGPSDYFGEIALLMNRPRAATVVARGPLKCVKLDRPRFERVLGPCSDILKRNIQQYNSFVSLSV
PKA-RIIα, sequence (P13861 whole entry): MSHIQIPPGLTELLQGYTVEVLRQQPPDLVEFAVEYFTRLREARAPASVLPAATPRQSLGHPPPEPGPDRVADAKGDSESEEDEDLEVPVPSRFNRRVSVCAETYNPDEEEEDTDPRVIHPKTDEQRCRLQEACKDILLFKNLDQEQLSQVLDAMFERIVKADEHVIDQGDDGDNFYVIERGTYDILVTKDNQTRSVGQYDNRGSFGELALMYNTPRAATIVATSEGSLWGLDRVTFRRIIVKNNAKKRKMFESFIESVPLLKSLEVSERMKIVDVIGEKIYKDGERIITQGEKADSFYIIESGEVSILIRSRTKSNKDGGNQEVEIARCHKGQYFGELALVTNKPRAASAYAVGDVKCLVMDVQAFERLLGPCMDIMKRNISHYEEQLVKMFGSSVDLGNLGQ

Row | Compound | helicity ([1]; 50% TFE) | human RIα binding (R-overlay) [2] | immobilization of PKA type I (PKA-RIα, PKA-C) [3] | co-precipitation with RI [4] | immobilization of PKA-RIIα [5] | helicity ([1]; absence of TFE)
1 | LEQYANQLADQIIKEATERRRRRRRRRrr [MEME3-Arg11] | 39% |  |  |  |  | 
2 | IEKELAQQYQNADAITLE [SM3, scrambled MEME3 negative control peptide, reference compound] | 29% | no RIα binding at all | Neither PKA-RIα, PKA-C nor PKA-RIIα were immobilized | did not co-precipitate with RI | Neither PKA-RIα nor PKA-RIIα bound | 7%
3 | CC[C@H](C)[C@H](NC(=O)[C@H](CCC(N)=O)NC(=O)[C@H](CC(=O)O)NC(=O)[C@H](C)NC(=O)[C@H](CC(C)C)NC(=O)[C@H](CCC(N)=O)NC(=O)[C@H](CC(N)=O)NC(=O)[C@H](C)NC(=O)[C@H](Cc1ccc(O)cc1)NC(=O)[C@H](CCC(N)=O)NC(=O)[C@H](CCC(=O)O)NC(=O)[C@@H](N)CC(C)C)C(=O)N[C@H](C(=O)N[C@@H](CCCCN)C(=O)N[C@@H](CCC(=O)O)C(=O)N[C@@H](C)C(=O)N[C@H](C(=O)N[C@@H](CCC(=O)O)C(=O)N[C@@H](CCCCNC(=O)c1ccc2c(c1)C(=O)OC21c2ccc(O)cc2Oc2cc(O)ccc21)C(N)=O)[C@@H](C)O)[C@@H](C)CC [MEME3] | 49% | bound with similar affinity to MEME3 as did bovine RIα | Only PKA type I was immobilized | Co-precipitation of MEME3 with RI | not PKA-RIIα | 12%
